{"source": "ChEMBL document CHEMBL5380860", "about": "“Design, Synthesis, and Antitumor Activity of Potent and Selective EGFR L858R/T790M Inhibitors and Identification of a Combination Therapy to Overcome Acquired Resistance in Models of Non-small-cell Lung Cancer” (J Med Chem, 2023)", "key": {"Mus musculus [1]": {"species_on_record": "Mus musculus", "conditions": "BALB/c, dose 10.0 mg/kg/day, route po"}, "[2]": {"test": "AUC (0 to infinity) in Sprague-Dawley rat at 1 mg/kg, iv by LC-MS analysis", "type": "ADME, organism-based", "design": "dose 1 mg/kg, route iv", "conditions": "in vivo"}, "A549 [3]": {"test_system": "A549", "test": "Inhibition of cell migration in human A549 cells at 10 uM incubated for 48 hrs by scratch wound healing assay", "type": "toxicity, cell-based", "conditions": "a549, 48 h"}, "[4]": {"test_system": "Epidermal growth factor receptor (Homo sapiens), P00533 [L858R,T790M]", "test": "(§1) Inhibition of EGFR L858R/T790M mutant in osimertinib-resistant human NCI-H1975 cells assessed as inhibition of EGF-induced Akt phosphorylation at Ser473 residue pretreated with compound for 4 hrs followed by incubation with EGF for 10 mins by western blot analysis", "type": "cell-based", "conditions": "time 250.0 min"}, "A549 [5]": {"test_system": "A549", "test": "Inhibition of clonogenicity in human A549 cells assessed as inhibition of colony formation at 0.1 to 10 uM incubated for 14 days by crystal violet staining based analysis", "type": "toxicity, cell-based", "conditions": "a549, 336 h, dose 0.1-10 µM, time 14 day"}, "NCI-H1975 [6]": {"test_system": "NCI-H1975", "test": "Inhibition of cell migration in human NCI-H1975 cells at 0.1 uM incubated for 48 hrs by scratch wound healing assay", "type": "functional, cell-based"}, "[7]": {"test": "Selectivity ratio of IC50 for cytotoxicity against human A549 cells harboring wild type EGFR to IC50 for antiproliferative activity against human NCI-H1975 cells harboring EGFR L858R/T790M mutant", "type": "toxicity, cell-based", "conditions": "read-out: Ratio IC50"}, "NCI-H1975 [8]": {"test_system": "NCI-H1975", "test": "Inhibition of clonogenicity in human NCI-H1975 cells assessed as inhibition of colony formation incubated for 14 days by crystal violet staining based analysis", "type": "functional, cell-based", "conditions": "dose 0.1-10 µM, time 14.0 day"}, "Mus musculus [9]": {"test_system": "Mus musculus", "test": "In vivo inhibition of EGFR L858R/T790M mutant in N-(3-((6-Fluoro-2-((4-(4-methylpiperazin-1-yl)phenyl)amino)quinazolin-4-yl)amino)phenyl)acrylamide-resistant human NCI-H1975 cells xenografted BALB/c mouse assessed as inhibition of AKT phosphorylation at Ser473 residue in tumor at 20 mg/kg/day, ip in presence of ACK1 inhibitor, dasatinib by immunoblot analysis", "type": "functional, organism-based"}, "NCI-H1975 [10]": {"test_system": "NCI-H1975", "test": "Antitumor activity against human NCI-H1975 cells xenografted in ip dosed BALB/c mouse assessed as decrease in tumor weight", "type": "functional, organism-based", "conditions": "dose 5-20 mg/kg/day"}, "[11]": {"test_system": "Epidermal growth factor receptor (Homo sapiens), P00533 [L858R,T790M]", "test": "as §1, with “N-(3-((6-Fluoro-2-((4-(4-methylpiperazin-1-yl)phenyl)amino)quinazolin-4-yl)amino)phenyl)acrylamide-resistant” for “osimertinib-resistant”", "type": "cell-based", "conditions": "time 250.0 min"}, "[12]": {"test": "Selectivity ratio of IC50 for cytotoxicity against human A-431 cells harboring wild type EGFR to IC50 for antiproliferative activity against human NCI-H1975 cells harboring EGFR L858R/T790M mutant", "type": "toxicity, cell-based", "conditions": "read-out: Ratio IC50"}, "[13]": {"target": "T1, Tyrosine-protein kinase Tec (Homo sapiens, UniProt P42680)", "T1 sequence (P42680 whole entry)": "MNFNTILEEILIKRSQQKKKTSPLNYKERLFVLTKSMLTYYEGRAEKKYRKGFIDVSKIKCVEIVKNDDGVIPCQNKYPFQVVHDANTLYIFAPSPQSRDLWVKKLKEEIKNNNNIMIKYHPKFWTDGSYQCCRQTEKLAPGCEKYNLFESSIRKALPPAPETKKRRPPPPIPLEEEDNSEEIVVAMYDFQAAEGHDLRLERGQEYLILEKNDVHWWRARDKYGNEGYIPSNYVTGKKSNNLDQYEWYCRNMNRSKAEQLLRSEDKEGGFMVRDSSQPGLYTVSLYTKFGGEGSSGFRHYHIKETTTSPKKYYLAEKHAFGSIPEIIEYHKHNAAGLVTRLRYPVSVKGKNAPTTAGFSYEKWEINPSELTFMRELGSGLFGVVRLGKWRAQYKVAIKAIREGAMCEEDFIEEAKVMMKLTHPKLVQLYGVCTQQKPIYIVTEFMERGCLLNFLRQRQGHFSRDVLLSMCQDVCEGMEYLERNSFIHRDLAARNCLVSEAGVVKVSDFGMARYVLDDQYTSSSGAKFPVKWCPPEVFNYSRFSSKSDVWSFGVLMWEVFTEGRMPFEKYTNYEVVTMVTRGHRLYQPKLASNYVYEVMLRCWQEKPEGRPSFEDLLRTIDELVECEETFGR", "test": "Inhibition of human wild type partial length TEC kinase (L341 to D620 residues) expressed in bacterial expression system by KINOMEscan analysis"}, "[14]": {"target": "Epidermal growth factor receptor (Homo sapiens, UniProt P00533, L858R/T790M)", "test": "Inhibition of human partial length EGFR (R669 to V1011 residues) L858R/T790M mutant expressed in mammalian expression system by KINOMEscan analysis"}, "[15]": {"test": "(§2) Toxicity in BALB/c mouse xenografted with N-(3-((6-Fluoro-2-((4-(4-methylpiperazin-1-yl)phenyl)amino)quinazolin-4-yl)amino)phenyl)acrylamide-resistant human NCI-H1975 cells assessed as changes in lung morphological changes at 20 mg/kg/day, ip in presence of ACK1 inhibitor, dasatinib by hematoxylin-eosin staining based analysis", "type": "organism-based", "conditions": "in vivo"}, "[16]": {"target": "Epidermal growth factor receptor (Homo sapiens, UniProt P00533, L858R)", "test": "Inhibition of human partial length EGFR (R669 to V1011 residues) L858R mutant expressed in bacterial expression system by KINOMEscan analysis"}, "[17]": {"test": "as §2, with “spleen” for “lung”", "type": "organism-based", "conditions": "in vivo"}, "[18]": {"test": "Toxicity in BALB/c mouse xenografted with N-(3-((6-Fluoro-2-((4-(4-methylpiperazin-1-yl)phenyl)amino)quinazolin-4-yl)amino)phenyl)acrylamide-resistant human NCI-H1975 cells assessed as effect on body weight at 20 mg/kg/day, ip in presence of ACK1 inhibitor, dasatinib", "type": "organism-based", "conditions": "in vivo"}, "[19]": {"test_system": "Epidermal growth factor receptor (Homo sapiens), P00533 [L858R]", "test": "Inhibition of human partial length EGFR (R669 to V1011 residues) L858R mutant expressed in bacterial expression system assessed as residual activity at 1 uM by KINOMEscan analysis"}, "Mus musculus [20]": {"test_system": "Mus musculus", "test": "In vivo inhibition of EGFR L858R/T790M mutant in NCI-H1975 cells xenografted BALB/c mouse assessed as inhibition of ERK-1/2 phosphorylation in tumor at 20 mg/kg/day, ip by immunoblot analysis", "type": "functional, organism-based"}, "HCC827": {"test_system": "HCC827", "test": "Induction of apoptosis in human HCC827 cells assessed as induction of PARP cleavage pretreated with compound for 4 hrs followed by incubation with EGF for 10 mins by western blot analysis", "type": "functional, cell-based", "conditions": "dose 0.1-10 µM, time 250.0 min"}, "[21]": {"test": "AUC (0 to t) in Sprague-Dawley rat at 1 mg/kg, iv by LC-MS analysis", "type": "ADME, organism-based", "design": "dose 1 mg/kg, route iv", "conditions": "in vivo"}, "[22]": {"test": "Cytotoxicity against human A-431 cells harboring wild type EGFR assessed as reduction in cell viability measured after 72 hrs by MTT assay", "type": "toxicity, cell-based"}, "A-431": {"test_system": "A-431", "test": "Induction of apoptosis in human A-431 cells assessed as induction of caspase-3 cleavage at 0.1 to 10 uM pretreated with compound for 4 hrs followed by incubation with EGF for 10 mins by western blot analysis", "type": "toxicity, cell-based", "conditions": "a-431, 4.167 h, dose 0.1-10 µM, time 250 min"}}, "note": "The source made the active and inactive calls. No cut-off for these calls is given here."}
{"smiles": "C=CC(=O)Nc1cc(Nc2nccc(-c3cn(C)c4ccccc34)n2)c(OC)cc1N(C)CCN(C)C", "note": "[OSIMERTINIB]", "values": [{"measurement": "inhibition", "setting": "Mus musculus [1]", "value": "Active"}]}
{"smiles": "C=CC(=O)Nc1cccc(Nc2nc(Nc3ccc(N4CCN(C)CC4)cc3)nc3ccc(F)cc23)c1", "values": [{"measurement": "AUC(0-inf)", "setting": "[2]", "value": 1050, "unit": "ng·h/mL"}, {"measurement": "Activity", "setting": "A549 [3]", "value": "Non-Toxic"}, {"measurement": "inhibition", "setting": "[4]", "value": "inactive"}, {"measurement": "Activity", "setting": "A549 [5]", "value": "Non-Toxic"}, {"measurement": "inhibition", "setting": "NCI-H1975 [6]", "value": "Active"}, {"measurement": "selectivity ratio", "setting": "[7]", "value": 211}, {"measurement": "inhibition", "setting": "NCI-H1975 [8]", "value": "Dose-Dependent Effect"}, {"measurement": "inhibition", "setting": "Mus musculus [9]", "value": "Active"}, {"measurement": "Activity", "setting": "NCI-H1975 [10]", "value": "Dose-Dependent Effect"}, {"measurement": "inhibition", "setting": "[11]", "value": "inactive"}, {"measurement": "selectivity ratio", "setting": "[12]", "value": 130}, {"measurement": "IC50", "setting": "[13]", "value": 518, "unit": "nM"}, {"measurement": "IC50", "setting": "[14]", "value": 3.5, "unit": "nM"}, {"measurement": "Activity", "setting": "[15]", "value": "Non-Toxic"}, {"measurement": "IC50", "setting": "[16]", "value": 2.1, "unit": "nM"}, {"measurement": "Activity", "setting": "[17]", "value": "Non-Toxic"}, {"measurement": "Activity", "setting": "[18]", "value": "Non-Toxic"}, {"measurement": "Activity", "setting": "[19]", "value": 1, "unit": "%"}, {"measurement": "inhibition", "setting": "Mus musculus [20]", "value": "Active"}, {"measurement": "Activity", "setting": "HCC827", "value": "Dose-Dependent Effect"}, {"measurement": "AUC(0-t)", "setting": "[21]", "value": 1040, "unit": "ng·h/mL"}, {"measurement": "IC50 at 72 h", "setting": "[22]", "value": 2490, "unit": "nM"}, {"measurement": "Activity", "setting": "A-431", "value": "Non-Toxic"}]}
